Results as given in patent US20180362456A1, “NEW COMPOUNDS WITH ANTIOXIDANT AND ANTIAGING ACTIVITY” (EMS S/A, priority 2015, published 2018).

What was measured:
[1] = tested on: Balb3T3; assay: Lactate dehydrogenase (LDH) release, cell membrane permeability; type: cell-based; set-up: activity on cell membrane: dose or concentration left out as unconfirmed; settings: for LDH release, % of total enzyme contained in the cells: 14 hours exposition
Description: (§1) The citotoxicity of compounds described in examples 1 and 2 was tested with the test Neutral Red Uptake to determine the IC50 values. To better define the cytotoxic potential also the lactate dehydrogenase (LDH) release was tested to verify the action on cell membrane permeability. Test were performed according to DB-ALM Protocol n L39Balb3T3 Red Uptake cytotoxicity and ISO 10993-5:2009.

[2] = tested on: free radicals; assay: Antioxidant activity, DCA fluorimetric probe, UVA treatments; type: cell-based
Description: (§2) The antioxidant power of compounds described in examples 1 and 2 was tested in two different tests, one for the scavenger activity and one for the antioxidant activity. The method is based on the fluorimetric probe 2′,7′-dichlorofluorescein diacetate (DCA) that becomes fluorescent only when it is oxidized by free radicals.

[3] = Neutral Red Uptake cytotoxicity test; type: cell-based; settings: mouse, Balb3T3 cells
Description: as §1

[4] = tested on: Balb3T3; assay: Neutral Red Uptake cytotoxicity test; type: cell-based
Description: as §1

[5] = tested on: free radicals; assay: Scavenger activity, DCA fluorimetric probe, UVA treatments; type: cell-based
Description: as §2

[6] = In vitro skin permeation, static Franz diffusion cells (OECD 428); type: in vitro ADME; settings: 1% solution, 5 mg/cm2 on human skin, 24 hours, unocclusive
From the text: The in vitro skin permeation experiments were developed and validated according to the Organization for Economic Cooperation and Development adopted guideline 428 (OECD guideline for the testing of chemicals. Skin absorption: in vitro method. Guideline 428 (Paris, April 2004, updated January 2011)). Briefly, static Franz diffusion cells were set up with human skin samples according with OECD and SCSS guidelines. A simple formulation containing 1% of compound of example 1 in solution was applied topically on human skin samples (5 mg/cm2) for 24 hours in an unocclusive conditions. At the end of the exposure time the Franz diffusion cells were dismantled and the distribution of the compound was measured on the skin surface, in the stratum corneum and in the rector fluid. An extraction method was developed and the day after the extraction process, all the samples were filtered through 0.22 μm membrane filter into HPLC vials. The samples of compounds of example 1, together with known concentration standards were assayed by HPLC-UV (Waters, USA). The average amount measured in the dermis was 2% of applied dose and in the receptor fluid was 3% of the applied dose. Therefore, the calculated average dermal absorption for compound 1 was 5%.

Row | LDH release, % of total enzyme contained in the cells ([1]; 1 mM) | average amount measured in the dermis [6] | average amount measured in the receptor fluid [6] | calculated average dermal absorption [6] | LDH release, % of total enzyme contained in the cells ([1]; 0.2 mM) | LDH release, % of total enzyme contained in the cells ([1]; 0.5 mM) | Structure (SMILES) | activity on cell membrane [1] | inhibition at 25 µM ([2]; 0.025 mM, read-out: inhibition of free radical formation (antioxidant activity)) | IC50 [3] | overall biocompatibility [4] | reduction of free radical formation (scavenger action) ([5]; after first UVA treatment) | inhibition of free radical formation (antioxidant efficacy) ([2]; 0.1 mM effective dose, after 5 treatments UVA) | reduction of the formation of free radicals (scavenger activity), on average ([5]; 0.004 mM, after 5 treatments with UVA)
1 | 12.3% | – | – | – | – | – | C=CCSCC(NC(=O)C1CCC(=O)N1)C(=O)OC [Example 2, L-Pyroglutamyl-(R)-3-Allylsulfanyl-2-amino-propionic Acid Methyl Ester] | some slight activity on cell membrane | 25.6% | > 3000 µM | very biocompatible | 23.5% | – | –
2 | – | 2 % of applied dose | 3 % of the applied dose | 5% | 13.0% | 13.2% | C=CCSCC(N)C(=O)Oc1ccc(/C=C/c2cc(OC(=O)C(N)CSCC=C)cc(OC(=O)C(N)CSCC=C)c2)cc1.Cl.Cl.Cl (stereo not drawn) [Example 1, (E)-1,1′-((5-(4-((3-(allylthio)-2-ammoniopropanoyl)oxy)styryl)-1,3-phenylene)bis(oxy))bis(3-(allylthio)-1-oxopropan-2-aminium) Chloride] | not highlighted a specific activity on cell membrane | – | 113 µM | – | – | more than 50% | 41%
